Data as given in ChEMBL document CHEMBL5036347, “Design of the naphthyl-diarylpyrimidines as potent non-nucleoside reverse transcriptase inhibitors (NNRTIs) via structure-based extension into the entrance channel” (Eur J Med Chem, 2021).

Key:
[1] = test system: Human immunodeficiency virus 1; test: Anti-HIV activity against HIV-1 IIIB infected in human MT4 cells assessed as reduction in virus-induced cytopathic effect incubated for 5 days by MTT assay; type: functional, organism-based; details: Human immunodeficiency virus 1, IIIB, MT4, 120 h
[2] = test system: Human immunodeficiency virus 2; test: Anti-HIV activity against HIV2 ROD infected in human MT4 cells assessed as reduction in virus-induced cytopathic effect incubated for 5 days by MTT assay; type: functional, organism-based; details: Human immunodeficiency virus 2, ROD, MT4, 120 h
[3] = Cytotoxicity against human MT4 cells assessed as reduction in cell viability incubated for 5 days by MTT assay; type: cell-based; details: human, MT4 cells; time 5 day
[4] = test system: Human immunodeficiency virus 1; test: Antiviral activity against HIV1 harboring reverse transcriptase L100I mutant infected in human MT4 cells assessed as protection against virus-induced cytopathic effect incubated for 5 days by MTT assay; type: functional, organism-based; details: Human immunodeficiency virus 1, MT4, 120 h
[5] = test system: Human immunodeficiency virus 1; test: Antiviral activity against HIV1 harboring reverse transcriptase K103N mutant infected in human MT4 cells assessed as protection against virus-induced cytopathic effect incubated for 5 days by MTT assay; type: functional, organism-based; details: Human immunodeficiency virus 1, MT4, 120 h
[6] = test system: Human immunodeficiency virus 1; test: Antiviral activity against HIV1 harboring reverse transcriptase Y181C mutant infected in human MT4 cells assessed as protection against virus-induced cytopathic effect incubated for 5 days by MTT assay; type: functional, organism-based; details: Human immunodeficiency virus 1, MT4, 120 h
[7] = test system: Human immunodeficiency virus 1; test: Antiviral activity against HIV1 harboring reverse transcriptase Y188L mutant infected in human MT4 cells assessed as protection against virus-induced cytopathic effect incubated for 5 days by MTT assay; type: functional, organism-based; details: Human immunodeficiency virus 1, MT4, 120 h
[8] = test system: Human immunodeficiency virus 1; test: Antiviral activity against HIV1 harboring reverse transcriptase E138K mutant infected in human MT4 cells assessed as protection against virus-induced cytopathic effect incubated for 5 days by MTT assay; type: functional, organism-based; details: Human immunodeficiency virus 1, MT4, 120 h
[9] = test system: Human immunodeficiency virus 1; test: Antiviral activity against HIV1 harboring reverse transcriptase F227L/V106A mutant infected in human MT4 cells assessed as protection against virus-induced cytopathic effect incubated for 5 days by MTT assay; type: functional, organism-based; details: Human immunodeficiency virus 1, MT4, 120 h
[10] = Resistance fold, ratio of EC50 for HIV1 harboring reverse transcriptase Y181C mutant […] to EC50 for wild type HIV1 […]; type: functional
[11] = Resistance fold, ratio of EC50 for HIV1 harboring reverse transcriptase L100I mutant […] to EC50 for wild type HIV1 […]; type: functional
[12] = Resistance fold, ratio of EC50 for HIV1 harboring reverse transcriptase K103N mutant […] to EC50 for wild type HIV1 […]; type: functional
[13] = test system: Human immunodeficiency virus 1; test: Antiviral activity against HIV1 harboring reverse transcriptase K103N/Y181C double mutant infected in human MT4 cells assessed as protection against virus-induced cytopathic effect incubated for 5 days by MTT assay; type: functional, organism-based; details: Human immunodeficiency virus 1, MT4, 120 h
[14] = Selectivity index, ratio of CC50 for cytotoxicity against human MT4 cells to EC50 of Anti-HIV activity against HIV-1 IIIB infected in human MT4; type: toxicity, cell-based; details: read-out: Selectivity Index
[15] = Resistance fold, ratio of EC50 for HIV1 harboring reverse transcriptase Y188L mutant […] to EC50 for wild type HIV1 […]; type: functional
[16] = Resistance fold, ratio of EC50 for HIV1 harboring reverse transcriptase E138K mutant […] to EC50 for wild type HIV1 […]; type: functional
[17] = Resistance fold, ratio of EC50 for HIV1 harboring reverse transcriptase F227L/V106A double mutant […] to EC50 for wild type HIV1 […]; type: functional
[18] = Resistance fold, ratio of EC50 for HIV1 harboring reverse transcriptase K103N/Y181C double mutant […] to EC50 for wild type HIV1 […]; type: functional
[19] = molecular target: Human immunodeficiency virus type 1 reverse transcriptase (Human immunodeficiency virus 1, UniProt Q72547); test: Inhibition of wild type HIV1 reverse transcriptase using oligo(dT)16 as primer measured after 40 mins by picogreen-dye based spectrofluorimetric analysis

Which EC50 [1] does the source give for `COc1cc2cc(C#N)ccc2c(OC)c1Oc1cc(NC2CC2)nc(Nc2ccc(C#N)cc2)n1` here?
Its EC50 is 0.02 µM.

And the EC50 [2]?
The EC50 was > 1000 µM.

What about the CC50 at 120 h [3] of the same molecule?
The CC50 at 120 h was > 125 µM.

What about the EC50 [4] of the same molecule?
Its EC50 is 0.59 µM.

What about the EC50 [5] of the same molecule?
The EC50 was 0.038 µM.

What about the EC50 [6] of the same molecule?
The EC50 was 0.19 µM.

And the IC50 [7]?
The IC50 was 0.91 µM.

And the EC50 [8]?
The EC50 was 0.061 µM.

What about the EC50 [9] of the same molecule?
Its EC50 is 9.59 µM.

And the “Ratio EC50” value [10]?
The value was 9.

And the “Ratio EC50” value [11]?
The value was 29.

And the “Ratio EC50” value [12]?
The value was 2.

What about the EC50 [13] of the same molecule?
Its EC50 is 1.28 µM.

What about the selectivity ratio [14] of the same molecule?
Its selectivity ratio is > 12700.

What about the “Ratio EC50” value [15] of the same molecule?
Its value is 45.

What about the “Ratio EC50” value [16] of the same molecule?
Its value is 3.

What about the “Ratio EC50” value [17] of the same molecule?
Its value is 468.

And the “Ratio EC50” value [18]?
The value was 63.

What about the IC50 [19] of the same molecule?
Its IC50 is 0.08 µM.

With `CCC(C)Nc1cc(Oc2c(OC)cc3cc(C#N)ccc3c2OC)nc(Nc2ccc(C#N)cc2)n1` (stereo not drawn) as the molecule, how does the EC50 [1] read?
Its EC50 is 0.045 µM.

What about the EC50 [2] of the same molecule?
Its EC50 is > 1000 µM.

And the CC50 at 120 h [3]?
The CC50 at 120 h was > 125 µM.

What about the EC50 [4] of the same molecule?
Its EC50 is 1.38 µM.

And the EC50 [5]?
Its EC50 is 0.42 µM.

What about the EC50 [6] of the same molecule?
The EC50 was 0.43 µM.

And the EC50 [7]?
The EC50 was 3.97 µM.

What about the EC50 [8] of the same molecule?
The EC50 was 0.12 µM.

What about the EC50 [9] of the same molecule?
The EC50 was > 1000 µM.

And the “Ratio EC50” value [10]?
The value was 10.

What about the “Ratio EC50” value [11] of the same molecule?
Its value is 31.

What about the “Ratio EC50” value [12] of the same molecule?
Its value is 9.

And the EC50 [13]?
The EC50 was 3.69 µM.

And the selectivity ratio [14]?
The selectivity ratio was > 5670.

And the “Ratio EC50” value [15]?
The value was 89.

What about the “Ratio EC50” value [16] of the same molecule?
Its value is 3.

What about the “Ratio EC50” value [17] of the same molecule?
Its value is >22472.

What about the “Ratio EC50” value [18] of the same molecule?
The value was 83.

And the IC50 [19]?
Its IC50 is 0.26 µM.

Which EC50 [1] does the source give for `COc1cc2cc(C#N)ccc2c(OC)c1Oc1cc(NCCCOC(C)C)nc(Nc2ccc(C#N)cc2)n1` here?
The EC50 was 0.043 µM.

And the EC50 [2]?
Its EC50 is > 1000 µM.

And the CC50 at 120 h [3]?
The CC50 at 120 h was > 125 µM.

And the EC50 [4]?
The EC50 was 1.23 µM.

What about the EC50 [5] of the same molecule?
The EC50 was 0.033 µM.

What about the EC50 [6] of the same molecule?
The EC50 was 0.55 µM.

And the EC50 [7]?
The EC50 was 2.51 µM.

What about the EC50 [8] of the same molecule?
Its EC50 is 0.057 µM.

What about the EC50 [9] of the same molecule?
Its EC50 is > 1000 µM.

And the “Ratio EC50” value [10]?
The value was 13.

What about the “Ratio EC50” value [11] of the same molecule?
The value was 29.

And the “Ratio EC50” value [12]?
Its value is 3.

And the EC50 [13]?
The EC50 was 2.07 µM.

And the selectivity ratio [14]?
The selectivity ratio was > 5380.

What about the “Ratio EC50” value [15] of the same molecule?
Its value is 58.

And the “Ratio EC50” value [16]?
Its value is 1.

And the “Ratio EC50” value [17]?
The value was >23202.

What about the “Ratio EC50” value [18] of the same molecule?
Its value is 48.

What about the IC50 [19] of the same molecule?
Its IC50 is 0.32 µM.

Which results are given for `COc1cc2cc(C#N)ccc2c(OC)c1Oc1cc(NC2CCCCC2)nc(Nc2ccc(C#N)cc2)n1`?
EC50 [1]: 0.1 µM; IC50 [2]: > 1000 µM; CC50 at 120 h [3]: > 125 µM; EC50 [4]: 39.8 µM; EC50 [5]: 0.13 µM; EC50 [6]: 1.27 µM; EC50 [7]: 50.3 µM; EC50 [8]: 0.57 µM; EC50 [9]: > 1000 µM; Ratio EC50 [10]: 12; Ratio EC50 [11]: 379; Ratio EC50 [12]: 1; EC50 [13]: 97.9 µM; selectivity ratio [14]: > 2290; Ratio EC50 [15]: 479; Ratio EC50 [16]: 2; Ratio EC50 [17]: >9533; Ratio EC50 [18]: 933; IC50 [19]: 0.44 µM

Which EC50 [1] does the source give for `CCCC(CCC)Nc1cc(Oc2c(OC)cc3cc(C#N)ccc3c2OC)nc(Nc2ccc(C#N)cc2)n1` here?
The EC50 was 0.71 µM.

What about the EC50 [2] of the same molecule?
The EC50 was > 1000 µM.

What about the CC50 at 120 h [3] of the same molecule?
The CC50 at 120 h was > 125 µM.

What about the EC50 [4] of the same molecule?
The EC50 was 128 µM.

And the EC50 [5]?
Its EC50 is 0.36 µM.

And the EC50 [6]?
Its EC50 is 26.4 µM.

And the EC50 [7]?
Its EC50 is > 1000 µM.

And the EC50 [8]?
Its EC50 is 1.59 µM.

And the EC50 [9]?
The EC50 was > 1000 µM.

And the “Ratio EC50” value [10]?
Its value is 37.

What about the “Ratio EC50” value [11] of the same molecule?
Its value is 181.

And the “Ratio EC50” value [12]?
The value was 1.

What about the EC50 [13] of the same molecule?
The EC50 was > 1000 µM.

And the selectivity ratio [14]?
The selectivity ratio was > 330.

And the “Ratio EC50” value [15]?
Its value is >1416.

What about the “Ratio EC50” value [16] of the same molecule?
Its value is 2.

What about the “Ratio EC50” value [17] of the same molecule?
Its value is >1416.

What about the “Ratio EC50” value [18] of the same molecule?
Its value is >1416.

And the IC50 [19]?
Its IC50 is 0.61 µM.

With `COc1cc2cc(C#N)ccc2c(OC)c1Oc1cc(NCC(C)(C)C)nc(Nc2ccc(C#N)cc2)n1` as the molecule, how does the EC50 [1] read?
Its EC50 is 0.085 µM.

And the EC50 [2]?
Its EC50 is > 1000 µM.

And the CC50 at 120 h [3]?
The CC50 at 120 h was > 125 µM.

And the EC50 [4]?
Its EC50 is 8.79 µM.

And the EC50 [5]?
The EC50 was 0.14 µM.

What about the EC50 [6] of the same molecule?
Its EC50 is 2.38 µM.

And the EC50 [7]?
The EC50 was 112 µM.

And the EC50 [8]?
Its EC50 is 0.31 µM.

And the EC50 [9]?
Its EC50 is > 1000 µM.

And the “Ratio EC50” value [10]?
Its value is 28.

What about the “Ratio EC50” value [11] of the same molecule?
The value was 103.

What about the “Ratio EC50” value [12] of the same molecule?
Its value is 2.

What about the EC50 [13] of the same molecule?
The EC50 was 1000 µM.

What about the selectivity ratio [14] of the same molecule?
Its selectivity ratio is > 2880.

And the “Ratio EC50” value [15]?
Its value is 1313.

And the “Ratio EC50” value [16]?
The value was 4.

What about the “Ratio EC50” value [17] of the same molecule?
The value was >11723.

And the “Ratio EC50” value [18]?
The value was >11723.

What about the IC50 [19] of the same molecule?
Its IC50 is 0.51 µM.

Which results are given for `CCCCCC(C)Nc1cc(Oc2c(OC)cc3cc(C#N)ccc3c2OC)nc(Nc2ccc(C#N)cc2)n1` (stereo not drawn)?
EC50 [1]: 1.54 µM; EC50 [2]: > 1000 µM; CC50 at 120 h [3]: > 125 µM; EC50 [4]: 157 µM; EC50 [5]: 1.33 µM; EC50 [6]: 40 µM; EC50 [7]: > 1000 µM; EC50 [8]: 2.22 µM; EC50 [9]: > 1000 µM; Ratio EC50 [10]: 26; Ratio EC50 [11]: 102; Ratio EC50 [12]: 1; EC50 [13]: > 1000 µM; selectivity ratio [14]: > 151; Ratio EC50 [15]: >650; Ratio EC50 [16]: 1; Ratio EC50 [17]: >649; Ratio EC50 [18]: >649; IC50 [19]: 1.2 µM
